From PubChem BioAssay (NCI)
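GI50 is the concentration that inhibits growth by half. Definition used: TGI = concentration required for complete inhibition of growth.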

Columns and labels:
Assay in all cases: growth of human tumour cells (NCI), 384-well format
[1] = tested on: 786-0 renal
[2] = tested on: A498 renal
[3] = tested on: A549 NSCLC
[4] = tested on: ACHN renal
[5] = tested on: BT-549 breast
[6] = tested on: CAKI-1 renal
[7] = tested on: COLO 205 colon
[8] = tested on: DU-145 prostate
[9] = tested on: EKVX NSCLC
[10] = tested on: HCC-2998 colon
[11] = tested on: HCT-116 colon
[12] = tested on: HCT-15 colon
[13] = tested on: HL-60(TB) leukemia
[14] = tested on: HOP-62 NSCLC
[15] = tested on: HOP-92 NSCLC
[16] = tested on: HS 578T breast
[17] = tested on: HT29 colon
[18] = tested on: IGROV1 ovarian
[19] = tested on: K-562 leukemia
[20] = tested on: KM12 colon
[21] = tested on: LOX IMVI melanoma
[22] = tested on: M14 melanoma
[23] = tested on: MALME-3M melanoma
[24] = tested on: MCF7 breast
[25] = tested on: MDA-MB-231 breast
[26] = tested on: MDA-MB-435 melanoma
[27] = tested on: MDA-MB-468 breast
[28] = tested on: MOLT-4 leukemia
[29] = tested on: NCI-H226 lung
[30] = tested on: NCI-H23 lung
[31] = tested on: NCI-H322M lung
[32] = tested on: NCI-H460 NSCLC
[33] = tested on: NCI-H522 lung
[34] = tested on: NCI/ADR-RES ovarian
[35] = tested on: OVCAR-3 ovarian
[36] = tested on: OVCAR-4 ovarian
[37] = tested on: OVCAR-5 ovarian
[38] = tested on: OVCAR-8 ovarian
[39] = tested on: PC-3 prostate
[40] = tested on: RPMI-8226 leukemia
[41] = tested on: RXF 393 renal
[42] = tested on: SF-268 CNS
[43] = tested on: SF-295 CNS
[44] = tested on: SF-539 CNS
[45] = tested on: SK-MEL-2 melanoma
[46] = tested on: SK-MEL-28 melanoma
[47] = tested on: SK-MEL-5 melanoma
[48] = tested on: SK-OV-3 ovarian
[49] = tested on: SN12C renal
[50] = tested on: SNB-19 CNS
[51] = tested on: SNB-75 CNS
[52] = tested on: SR leukemia
[53] = tested on: SW-620 colon
[54] = tested on: T-47D breast
[55] = tested on: TK-10 renal
[56] = tested on: U251 glioblastoma
[57] = tested on: UACC-257 melanoma
[58] = tested on: UACC-62 melanoma
[59] = tested on: UO-31 renal

C[C@@H]1C[C@H](N)C[C@H](c2ccncc2NC(=O)c2ccc(F)c(-c3c(F)cccc3F)n2)C1
GI50 [1]: 6.99 µM | TGI [1]: 19.5 µM | GI50 [2]: 4.81 µM | TGI [2]: 18.1 µM | GI50 [3]: 12.5 µM | TGI [3]: 25.5 µM | GI50 [4]: 13.8 µM | TGI [4]: 26.9 µM | GI50 [5]: 5.53 µM | TGI [5]: 19.2 µM | GI50 [6]: 3.78 µM | TGI [6]: 17.2 µM | GI50 [7]: 4.64 µM | TGI [7]: 11.9 µM | GI50 [8]: 15.7 µM | TGI [8]: 29.3 µM | GI50 [9]: 6.36 µM | TGI [9]: 19.3 µM | GI50 [10]: 1.9 µM | TGI [10]: 4.02 µM | GI50 [11]: 7.07 µM | TGI [11]: 19.9 µM | GI50 [12]: 9.74 µM | TGI [12]: 23.8 µM | GI50 [13]: 3.6 µM | TGI [13]: 16.3 µM | GI50 [14]: 12.8 µM | TGI [14]: 25.5 µM | GI50 [15]: 6.4 µM | TGI [15]: 19.7 µM | GI50 [16]: 10.2 µM | TGI [16]: 21.9 µM | GI50 [17]: 5.3 µM | TGI [17]: 14.9 µM | GI50 [18]: 7.37 µM | TGI [18]: 19.9 µM | GI50 [19]: 2.17 µM | TGI [19]: 10.9 µM | GI50 [20]: 10.4 µM | TGI [20]: 22.3 µM | GI50 [21]: 4.22 µM | TGI [21]: 15.6 µM | GI50 [22]: 3.43 µM | TGI [22]: 7.63 µM | GI50 [23]: 1.49 µM | TGI [23]: 3.11 µM | GI50 [24]: 7.02 µM | TGI [24]: 20.3 µM | GI50 [25]: 13.3 µM | TGI [25]: 26.1 µM | GI50 [26]: 11.5 µM | TGI [26]: 24 µM | GI50 [27]: 3.42 µM | TGI [27]: 10.2 µM | GI50 [28]: 3.21 µM | TGI [28]: 12.5 µM | GI50 [29]: 4.79 µM | TGI [29]: 20.8 µM | GI50 [30]: 14.5 µM | TGI [30]: 27.7 µM | GI50 [31]: 14.4 µM | TGI [31]: 27.5 µM | GI50 [32]: 6.02 µM | TGI [32]: 17.2 µM | GI50 [33]: 12.5 µM | TGI [33]: 25.1 µM | GI50 [34]: 16.7 µM | TGI [34]: 30.6 µM | GI50 [35]: 11.6 µM | TGI [35]: 23.9 µM | GI50 [36]: 17.2 µM | TGI [36]: 31.1 µM | GI50 [37]: 11.7 µM | TGI [37]: 24 µM | GI50 [38]: 14.3 µM | TGI [38]: 27.5 µM | GI50 [39]: 4.76 µM | TGI [39]: 17.3 µM | GI50 [40]: 0.0942 µM | TGI [40]: 0.674 µM | GI50 [41]: 3.18 µM | TGI [41]: 11.9 µM | GI50 [42]: 5.86 µM | TGI [42]: 15.9 µM | GI50 [43]: 16.9 µM | TGI [43]: 30.6 µM | GI50 [44]: 7.93 µM | TGI [44]: 20.8 µM | GI50 [45]: 13.4 µM | TGI [45]: 26.2 µM | GI50 [46]: 5.54 µM | TGI [46]: 10.8 µM | GI50 [47]: 1.74 µM | TGI [47]: 4.28 µM | GI50 [48]: 14.3 µM | TGI [48]: 27.4 µM | GI50 [49]: 14.4 µM | TGI [49]: 27.6 µM | GI50 [50]: 15.8 µM | TGI [50]: 29.3 µM | GI50 [51]: 7.54 µM | TGI [51]: 21.2 µM | GI50 [52]: 1.76 µM | TGI [52]: 3.56 µM | GI50 [53]: 14.3 µM | TGI [53]: 27.4 µM | GI50 [54]: 4.76 µM | TGI [54]: 17.7 µM | GI50 [55]: 12.5 µM | TGI [55]: 25.1 µM | GI50 [56]: 10.5 µM | TGI [56]: 22.4 µM | GI50 [57]: 1.65 µM | TGI [57]: 3.03 µM | GI50 [58]: 8.71 µM | TGI [58]: 22 µM | GI50 [59]: 13.5 µM | TGI [59]: 26.4 µM
